This data set deals with macaques. Description: Replication of the SIV virus expressing Cre recombinase after infection in macaques (viral RNA in plasma). To be noted: one macaque infected, FIG. 17. The data set is classed as in vivo. The text has this:
FIG. 17 is a graph showing the replication of the SIV virus expressing Cre recombinase evaluated by the number of copies of viral RNA/ml of plasma (y-axis) after infection in macaques, as a function of time (in days).
The dose and the route of infection are able to be modified as a function of the scientific aims of the experimentation. A method is briefly described below: • Infect the macaques intravenously (50 AID50) or mucosally (50-5000 AID50). • Monitor the viral load in kinetic conditions by quantification of the viral RNAs in the plasma of the infected animals.

As to “SIVmac239-Nef-IRES-Cre: SIVmac239 virus expressing Cre recombinase via Nef-IRES-Cre (SEQ ID NO: 25; plasmid SEQ ID NO: 13)”, the “replication dynamics (copies of viral RNA/ml of plasma over time)” value was “normal replication dynamics”.
